This is an account of results in patent publication US9902716B2, “Fluorinated benzofuranyl-pyrimidine derivatives containing a sulfone group” (Bayer Pharma Aktiengesellschaft, priority 2014, dated 2018).

For the test, the system named is A2780 cells. In words: Proliferation assay A2780 (Method 3, crystal violet). Type of test: cell-based. The following applies: Homo sapiens, 96 h; A2780, 4 days incubation; read-out: Inhibition of A2780 cell proliferation IC50. How it is done:
Cultivated tumour cells (HeLa, human cervical tumour cells, ATCC CCL-2; NCI-H460, human non-small cell lung carcinoma cells, ATCC HTB-177; A2780, human ovarian carcinoma cells, ECACC #93112519; DU 145, hormone-independent human prostate carcinoma cells, ATCC HTB-81; HeLa-MaTu-ADR, multidrug-resistant human cervical carcinoma cells, EPO-GmbH Berlin; Caco-2, human colorectal carcinoma cells, ATCC HTB-37; B16F10, mouse melanoma cells, ATCC CRL-6475) were plated at a density of 5,000 cells/well (DU145, HeLa-MaTu-ADR), 3,000 cells/well (NCI-H460, HeLa), 2,500 cells/well (A2780), 1,500 cells/well (Caco-2), or 1,000 cells/well (B16F10) in a 96-well multititer plate in 200 μL of their respective growth medium supplemented 10% fetal calf serum. […] Cell proliferation was determined by staining the cells with crystal violet: the cells were fixed by adding 20 μl/measuring point of an 11% glutaric aldehyde solution for 15 minutes at room temperature. […] The extinction was determined by photometry at a wavelength of 595 nm. The change of cell number, in percent, was calculated by normalization of the measured values to the extinction values of the zero-point plate (=0%) and the extinction of the untreated (0 μm) cells (=100%). […]

For the molecule `Cc1cc(CS(C)(=O)=O)cc(Nc2ncc(F)c(-c3ccc(F)c4ccoc34)n2)c1` [Example 4, 5-Fluoro-4-(4-fluoro-1-benzofuran-7-yl)-N-{3-methyl-5-[(methylsulfonyl)methyl]-phenyl}pyrimidin-2-amine], the IC50 was 38 nM.

Regarding `CS(=O)(=O)Cc1cccc(Nc2ncc(F)c(-c3ccc(F)c4ccoc34)n2)c1` [Example 1, 5-Fluoro-4-(4-fluoro-1-benzofuran-7-yl)-N-{3-[(methylsulfonyl)methyl]-phenyl}pyrimidin-2-amine], the IC50 came to 90 nM.
